Columns and labels:
Assay type in all cases: physicochemical
[1] = Example 1: solubility of sertaconazole nitrate in solvents, macroscopic
Procedure: (§1) Mixtures of 2 wt.-% sertaconazole nitrate and 98 wt.-% of solvents were prepared and shaken for 24 h at 150 rpm and at room temperature. Subsequently, the samples were macroscopically examined by evaluating the amount and appearance of the sediment.

[2] = Example 3: solubility of sertaconazole nitrate in mixtures of solvent and solubilizer
Procedure: as §1, with “a mixture of solvent and solubilizers (the amount of solubilizer with respect to the total mixture of sertaconazole nitrate, solvent and solubilizer is indicated in the subsequent table)” for “solvents”

[3] = Example 2: solubility of sertaconazole nitrate in solubilizers, macroscopic
Procedure: Mixtures of 2 wt.-% sertaconazole nitrate and 98 wt.-% of solubilizers were prepared and shaken for 24 h at 150 rpm and at room temperature. Subsequently, the samples were macroscopically examined by evaluating the amount and appearance of the sediment.

solubility ([1]; 2 wt.-% in 98 wt.-% solvent, 24 h, room temperature, trend over water, butyl acetate, ethyl acetate, isopropanol, ethanol): Increasing from water to ethanol
appearance ([1]; Ethanol): Low, crystalline sediment
appearance ([1]; Water): Not dissolved, powdery, white sediment
sediment ([1]; trend over water, butyl acetate, ethyl acetate, isopropanol, ethanol): Decreasing from water to etanol
amount and appearance of the sediment ([2]; Ethanol + Macrogol 400 10 wt.-%): Minimal crystal-line sediment
amount and appearance of the sediment ([2]; Ethanol + Macrogol 400 20 wt.-%): clear
amount and appearance of the sediment ([2]; Ethanol + Macrogol 400 30 wt.-%): clear
amount and appearance of the sediment ([2]; Ethanol + Polyglycol M350 10 wt.-%): Minimal crystal-line sediment
amount and appearance of the sediment ([2]; Ethanol + Polyglycol M350 20 wt.-%): clear
amount and appearance of the sediment ([2]; Ethanol + Polyglycol M350 30 wt.-%): clear
amount and appearance of the sediment ([2]; Ethyl acetate + Propylene glycol 30 wt.-%): Clear
appearance ([3]; Dimethylphthalate): Milky mixture with sediment
appearance ([3]; Glycerine (cell below, Marcogol 300, empty, possibly merged)): Clear solution with sediment
appearance ([3]; Polyglycol M350 (cells below, propylene glycol, transcutol, macrogol 400, empty, possibly merged)): Dissolved
SMILES: Clc1ccc(C(Cn2ccnc2)OCc2csc3c(Cl)cccc23)c(Cl)c1 (centres unmarked) [sertaconazole nitrate]
amount and appearance of the sediment ([2]; Butyl acetate + Macrogol 400 10-30 wt.-%): Sediment, no change observed by increasing amount of macrogol 400
amount and appearance of the sediment ([2]; Butyl acetate + Polyglycol M350 10-30 wt.-%): White powdery sediment, no change observed by increas-ing amount of polyglycol M350
amount and appearance of the sediment ([2]; Butyl acetate + Propylene glycol 10-30 wt.-%): Clear decrease of sediment with increase of propylene gly-col
amount and appearance of the sediment ([2]; Butyl acetate + Transcutol 10-30 wt.-%): Sediment, no change observed by increasing amount of transcutol
amount and appearance of the sediment ([2]; Butyl acetate + Water 10-30 wt.-%): Sediment (partially powdery white), increase of sediment with increasing amount of water
amount and appearance of the sediment ([2]; Ethanol + Dimethylphthalate 10-30 wt.-%): Sediment (slightly crystalline), minimal decrease of sedi-ment with increasing of amount of dimethylphthalate
amount and appearance of the sediment ([2]; Ethanol + Propylene glycol 10-30 wt.-%): Minimal crystalline sediment, decrease of sediment with increase of amount of propylene glycol
amount and appearance of the sediment ([2]; Ethanol + Transcutol 10-30 wt.-%): Minimal crystalline sediment, decrease of sediment with increase of amount of transcutol
amount and appearance of the sediment ([2]; Ethanol + Water 10-30 wt.-%): Sediment (powdery/crystalline), no change observed by in-creasing amount of water
amount and appearance of the sediment ([2]; Ethyl acetate + Dimethylphthalate 10-30 wt.-%): Crystalline sediment, better solubility than pure ethyl ace-tate
amount and appearance of the sediment ([2]; Ethyl acetate + Macrogol 400 10-30 wt.-%): Crystalline sediment, minimal decrease of sediment with increase of amount of macrogol 400
amount and appearance of the sediment ([2]; Ethyl acetate + Polyglycol M350 10-30 wt.-%): White, powdery sediment, no change observed by in-crease of amount of polyglycol M350
amount and appearance of the sediment ([2]; Ethyl acetate + Propylene glycol 10-20 wt.-%): Decrease of crystalline sediment with increase of amount of propylene gly-col
amount and appearance of the sediment ([2]; Ethyl acetate + Transcutol 10-30 wt.-%): Powdery/crystalline sediment, no change observed by in-crease of amount of transcutol
amount and appearance of the sediment ([2]; Ethyl acetate + Water 10-30 wt.-%): Sediment (partially powdery white), increase of sediment with increasing amount of water
amount and appearance of the sediment ([2]; Isopropanol + Macrogol 400 10-30 wt.-%): Crystalline sediment, no change observed by increasing amount of macrogol 400
amount and appearance of the sediment ([2]; Isopropanol + Polyglycol M350 10-30 wt.-%): White sediment, clear decrease of sediment with increas-ing amount of polyglycol M350
amount and appearance of the sediment ([2]; Isopropanol + Propylene glycol 10-30 wt.-%): Crystalline sediment, no change observed by increasing amount of propylene glycol
amount and appearance of the sediment ([2]; Isopropanol + Transcutol 10-30 wt.-%): Crystalline sediment, no change observed by increasing amount of transcutol
amount and appearance of the sediment ([2]; Isopropanol + Water 10-30 wt.-%): White powdery sediment, no change observed by increas-ing amount of water
solubility ([3]; 2 wt.-% in 98 wt.-% solubilizer, 24 h, room temperature, trend from dimethylphthalate to macrogol 400): Increasing from dimethylphthalate to macrogol 400

— patent EP3861981B1, “NOVEL SERTACONAZOLE COMPOSITIONS” (Dr. Pfleger Arzneimittel GmbH, priority 2020, dated 2021)
